For the experiment the following is noted: pyrophosphate 25 ppm; for Time of Crystal Growth Inhibition: no anticalculus agent, pH 7.20, 25° C. As to the method: The in vitro formation of hydroxyapatite (HAP) was measured titrimetrically using the pH - stat method described in Example I, above.
The pyrophosphate was used at the level of 25 ppm.

Each structure is given as a SMILES string. Like-named read-outs stand apart in the source and are kept apart here.

As to `O=P(O)(O)OP(=O)(O)O` [pyrophosphate], the “effectiveness of pyrophosphate when incubated with enzyme (in words)” value (absence of anticalculus agent polymer, with enzyme) is given as “drastically reduced”. Besides, the “Time of Crystal Growth Inhibition” value (pyrophosphatase No) was 30 min and the “Time of Crystal Growth Inhibition” value (pyrophosphatase Yes) was 11 min. Besides, for the setting “no enzyme”, the “delay of HAP formation (in words)” value is reported as “significantly delays HAP forma;tion”.

The record behind these values is US4842847A, “Dental calculus inhibiting compositions” (The B. F. Goodrich Company, priority 1987, dated 1989).
